Where two headings read alike, the source gives them in different places.
Test system: phosphorylation of Histone H3 in HeLa cells
Assay: HeLa cell 1-hour phospho-histone assay
Assay type: cell-based
Settings: Homo sapiens, % of cells pHH3 positive, read-out: inhibitory activity (EC50) in the phospho-histone H3 assay
Method: HeLa Cell 1-Hour Phospho-Histone Assay
The purpose of this assay is to test the inhibitory effect of Aurora compounds with respect to phosphorylation of Histone H3 in the cellular context. HeLa cells (9×10^4/well) are plated in black 96-well flat-bottom tissue culture plates and incubated for 40 hours prior to compound addition. Compounds are serially diluted in DMSO, followed by dilution into MEM containing 10 mM HEPES; 10 ul/well of diluted compounds are added to cells (0.5% DMSO final). Cells are incubated for 1 hour at 37° C. in 5% CO2. Cells are then fixed with 3.7% formaldehyde for 10 minutes, washed with wash buffer (1% goat serum and 0.1% Tween 20 in PBS), then permeabilized with 0.5% Triton X in PBS for 15 minutes. After washing with wash buffer, cells are incubated with primary antibody (Upstate #06-507 anti-phospho-histone (Ser 10) antibody (pHH3) for 1 hour at 10 ug/ml. After 2 washes with wash buffer, cells are incubated with secondary antibody (Molecular Probes #A11034 goat anti-rabbit Alexa-488 for 1 hour at 1 ug/ml+Hoechst 33342 nuclear dye at 1 ug/ml (Molecular Probes). Cells are washed 2 times with wash buffer, and buffer replaced with PBS. Plates are scanned on the Cellomics Array Scan (6 fields, ˜2000 cells/well) and % of cells that are pHH3 positive were calculated using the Cellomics algorithm.

| EC50 [µM] | EC50 (unit inferred) [µM] | Compound |
| --- | --- | --- |
| < 10 | < 1 | CNc1nccc(-c2cccnc2Oc2ccc(Nc3nnc(-c4cc(C)cs4)c4c3CCC4)cc2)n1 [Example 122, N-(4-((3-(2-(methylamino)-4-pyrimidinyl)-2-pyridinyl)oxy)phenyl)-4-(4-methyl-2-thienyl)-6,7-dihydro-5H-cyclopenta[d] pyridazin-1-amine] |
| < 10 | < 1 | CNc1nccc(-c2cccnc2Oc2ccc(Nc3nnc(-c4ccccc4)c4c3CCCC4)cc2)n1 [Example 123, N-(4-((3-(2-(methylamino)-4-pyrimidinyl)-2-pyridinyl)oxy)phenyl)-4-phenyl-5,6,7,8-tetrahydro-1-phthalazinamine] |

— US8686155B2, “Aurora kinase modulators and method of use” (Amgen Inc., priority 2006, dated 2014)
